Reference: patent US8895578B2, “Carboxamide, sulfonamide and amine compounds and methods for using the same” (Rigel Pharmaceuticals, Inc., priority 2007, dated 2014)

Biological target: AMPK
Experiment: AMPK activation, enzyme-linked immunosorbent assay
Assay type: biochemical
Procedure: Compounds 1-54 were assayed for their ability to activate AMPK using an enzyme-linked immunosorbent assay.
Compounds 55-62 of Table 1 were assayed for their ability to activate AMPK using an enzyme-linked immunosorbent assay.
Compounds 63-66 of Table 1 were assayed for their ability to activate AMPK using an enzyme-linked immunosorbent assay.
Compounds 67-71 of Table 1 were assayed for their ability to activate AMPK using an enzyme-linked immunosorbent assay.
Compound 72 of Table 1 was assayed for its ability to activate AMPK using an enzyme-linked immunosorbent assay.

## N#Cc1ccc(CN2CCC(NC(=O)c3ccc4[nH]c5c(c4c3)CN(Cc3ccccc3)CC5)CC2)cc1 [Compound 4, 2-benzyl-N-(1-(4-cyano-benzyl)piperidin-4-yl)-2,3,4,5-tetrahydro-1H-pyrido[4,3-b]indole-8-carboxamide]
Table 2, ELISA
  EC50: 1 to 5 µM

## O=C(NC1CCN(Cc2cccnc2)CC1)c1ccc2[nH]c3c(c2c1)CN(Cc1ccc(F)cc1)CC3 [Compound 8, 2-(4-fluorobenzyl)-N-(1-(pyridin-3-ylmethyl)piperidin-4-yl)-2,3,4,5-tetrahydro-1H-pyrido [4,3-b]indole-8-carboxamide]
Table 2, ELISA
  EC50: 5 to 10 µM

## NC(=O)c1ccc(CN2CCc3[nH]c4ccc(C(=O)NC5CCN(Cc6ccc(F)cc6)CC5)cc4c3C2)cc1 [Compound 48, 2-(4-carbamoylbenzyl)-N-(1-(4-fluorobenzyl)piperidin-4-yl)-2,3,4,5-tetrahydro-1H-pyrido[4,3-b] indole-8-carboxamide]
Table 2, ELISA
  EC50: > 100 µM

## O=C(NC1CCN(S(=O)(=O)c2ccc(F)cc2)CC1)c1ccc2[nH]c3c(c2c1)CN(c1ccc(F)cc1)CC3 [Compound 35, 2-(4-fluorophenyl)-N-(1-(4-fluorophenylsulfonyl)piperidin-4-yl)-2,3,4,5-tetrahydro-1H-pyrido[4,3-b] indole-8-carboxamide]
Table 2, ELISA
  EC50: 10 to 50 µM

## O=C(NC1CCN(Cc2ccccc2)CC1)c1ccc2[nH]c3c(c2c1)CN(C(=O)OCc1ccccc1)CC3 [Compound 2, benzyl 8-(1-(4-benzyl)piperidin-4-ylcarbamoyl)-3,4-dihydro-1H-pyrido[4,3-b]indole-2(5H)-carboxylate]
Table 2, ELISA
  EC50: 10 to 50 µM

## NC(=O)c1ccc(CN2CCC(NC(=O)c3ccc4[nH]c5c(c4c3)CN(Cc3ccc(C(N)=O)cc3)CC5)CC2)cc1 [Compound 49, 2-(4-carbamoylbenzyl)-N-(1-(4-carbamoylbenzyl)piperidin-4-yl)-2,3,4,5-tetrahydro-1H-pyrido [4,3-b]indole-8-carboxamide]
Table 2, ELISA
  EC50: > 100 µM

## O=C(NC1CCN(S(=O)(=O)c2ccc(Cl)cc2)CC1)c1ccc2[nH]c3c(c2c1)CN(Cc1ccc(C(F)(F)F)cc1)CC3 [Compound 32, N-(1-(4-chlorophenyl-sulfonyl)piperidin-4-yl)-2-(4-(trifluoromethyl)benzyl)-2,3,4,5-tetrahydro-1H-pyrido[4,3-b]indole-8-carboxamide]
Table 2, ELISA
  EC50: 1 to 5 µM

## O=C(NC1CCN(Cc2ccccc2)CC1)c1ccc(CN2CCN(c3ccc(C(F)(F)F)cn3)CC2)cc1 [Compound 57, N-(1-benzylpiperidin-4-yl)-4-((4-(5-(trifluoro-methyl)pyridin-2-yl)piperazin-1-yl)methyl) benzamide]
Table 3, ELISA
  EC50: < 0.1 µM

## O=C(NC1CCN(Cc2ccccc2)CC1)c1ccc2cc(OC3CCN(c4ccc(C(F)(F)F)cc4)CC3)ccc2c1 [Compound 65, N-(1-benzylpiperidin-4-yl)-6-(1-(4-(trifluoro-methyl)phenyl)piperidin-4-yloxy)-2-naphthamide]
Table 4, ELISA
  EC50: 1 to 5 µM

## O=C(NC1CCN(Cc2ccccc2)CC1)c1ccc2cc(OC3CCN(Cc4ccc(C(F)(F)F)cc4)CC3)ccc2c1 [Compound 63, N-(1-benzylpiperidin-4-yl)-6-(1-(4-(trifluoro-methyl)benzyl)piperidin-4-yloxy)-2-naphthamide]
Table 4, ELISA
  EC50: < 0.5 µM

## CC(C)(C)OC(=O)N1CCC(NC(=O)c2ccc3[nH]c4c(c3c2)CN(C(=O)OCc2ccccc2)CC4)CC1 [Compound 3, benzyl 8-(1-(tert-butoxy-carbonyl)piperidin-4-ylcarbamoyl)-3,4-dihydro-1H-pyrido[4,3-b]indole-2(5H)-carboxylate]
Table 2, ELISA
  EC50: 10 to 50 µM

## CC(C)(C)OC(=O)N1CCC(NC(=O)c2ccc3[nH]c4c(c3c2)CN(Cc2ccc(C(F)(F)F)cc2)CC4)CC1 [Compound 6, tert-butyl 4-(2-(4-(trifluoromethyl)benzyl)-2,3,4,5-tetrahydro-1H-pyrido[4,3-b]indole-8-carboxamido)piperidine-1-carboxylate]
Table 2, ELISA
  EC50: 0.5 to 1 µM
